Experiments:
rat IBAT = target: T1, rat IBAT (Rattus norvegicus, UniProt Q62633); assay: In vitro assay using Cos 7 cells, transiently expressed rat IBAT; type: cell-based; conditions: [3H]-taurocholate 8 μM uptake, 37° C., 60 minutes
T1 sequence (Q62633 1-348): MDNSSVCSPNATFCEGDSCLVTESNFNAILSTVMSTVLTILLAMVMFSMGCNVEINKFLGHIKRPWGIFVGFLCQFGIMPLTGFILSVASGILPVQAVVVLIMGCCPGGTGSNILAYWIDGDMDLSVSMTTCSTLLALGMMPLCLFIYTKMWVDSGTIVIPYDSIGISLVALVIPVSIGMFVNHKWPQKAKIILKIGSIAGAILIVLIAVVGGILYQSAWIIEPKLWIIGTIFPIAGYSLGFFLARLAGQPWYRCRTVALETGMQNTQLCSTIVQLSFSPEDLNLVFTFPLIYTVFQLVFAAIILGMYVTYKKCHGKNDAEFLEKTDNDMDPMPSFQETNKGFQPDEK
Protocol: In the present Test Example, an in vitro assay of compounds using Cos 7 cells as to inhibitory activity on transiently expressed human IBAT or rat IBAT transporter was performed according to the method described in Am. J. Physiol., 274, G157-169.
That is, […] cells/well of Cos 7 cells were seeded in a 24-well plate, and after one day, the cells were transfected with 0.3 μg/well of cDNA of human IBAT or rat IBAT using FuGENE6 (supplied from Roche). After culturing for one day after the transfection, the cells were washed once with the assay buffer, i.e., Hanks buffer containing 25 mM glucose and 10 mM HEPES (pH 7.4). The assay buffer was then replaced with the assay buffer containing the test compound. [^3H]-Taurocholate at a final concentration of 8 μM was added thereto and incubated at 37° C. for 60 minutes so that [^3H]-taurocholate was taken into Cos 7 cells by the action of human IBAT or rat IBAT. The cells were washed twice with the assay buffer containing 1 mM taurocholate, and subsequently lysed with 0.2 M NaOH to stop the reaction. The cell lysate was added to 4 mL of liquid scintillation cocktail, which was then thoroughly vortexed. Then the radioactivity was measured using the liquid scintillation counter.

rats dosed bile acid = assay: Model for hepatic disorder associated with cholestasis, Protocol B (bile acid without partial ligation): AST, ALT, ALP; type: in vivo, rat; conditions: Table 13, Protocol B, 0.1 mg/kg oral twice per day for 3.5 days, N=8, mean±standard error
Excerpt: In the present Test Example, a model for the hepatic disorder caused by partial ligation of the bile duct was employed with reference to Kanno's method (Liver, 43, Suppl(1):A126, 2002).
That is, to the SD (IGS) strain male rats at 7 to 10 weeks of age, the partial ligation of the bile duct was given with opening the abdominal cavity under anesthesia with pentobarbital. Before the operation, the blood was collected from femoral vein, in order to obtain the value before the administration. From the day after the operation, 200 mg/kg of bile acid and the test compound were orally administered forcibly twice per day for 3.5 days (Protocol A). Without giving the partial ligation of the bile duct, 200 mg/kg of bile acid and the test compound were also orally administered forcibly twice per day for 3.5 days (Protocol B). In both cases, the test compound was dissolved or suspended in distilled water or an aqueous solution of 1% HCO 60 (Nippon Chemicals). To the control group, saline was administered. As comparative examples, 25 mg/kg of cholestyramine (supplied from Sigma) or 50 mg/kg of ursodeoxycholic acid (supplied from Mitsubishi Pharma) was administered. For considering the effect of the operation, sham operation (sham group) was performed in some cases. The blood was collected from the abdominal aorta 6 hours after the drug administration on the final day of the experiment. AST (GOT), ALT (GPT) and ALP in the blood were measured using measurement kits (GOT II-HA Test Wako, GPT II-HA Test Wako and Alkaline Phosphor HA Test Wako, all were supplied from Wako Pure Chemical Industries) and using an automatic analyzer (Nitech ANALAYZER SUPER Z818).

ALANINE TRANSPORTER = assay: In vitro assay using Cos 7 cells for Na+ dependent amino acid transporter ([3H]-alanine uptake); type: cell-based; conditions: [3H]-alanine 8 μM, 37° C., 60 minutes, read-out: IC50 (μM) AGAINST ALANINE TRANSPORTER
Protocol: In the present Test Example, in vitro assays of the compounds using Cos 7 cells for various transporters were performed according to the description in JP-H10-505830 A.
That is, 2.5×10^5 cells/well of Cos 7 cells were seeded in a 24-well plate, and after two days, the cells were washed once with the assay buffer, i.e., Hanks buffer containing 25 mM glucose and 10 mM HEPES (pH 7.4). The assay buffer was then replaced with the assay buffer containing the test compound. [^3H]-alanine (brand name: NET-348, Daiich Pure chemical) or [^3H]-leucine (brand name: NET-460, Daiich Pure chemical) or [^3H]-phenylalanine (brand name: MT903, MORAVEK) or [^3H]-methionine (brand name: MT862, MORAVEK) or [^3H]-lysine (brand name: MT909, MORAVEK) or [^3H]-choline (brand name: TRK593, Amersham Biosciences) at a final concentration of 8 μM was added thereto and incubated at 37° C. for 60 minutes so that they were taken into Cos 7 cells. […] Then the radioactivity was measured using the liquid scintillation counter. The inhibitory rate (%) was calculated from the radioactivity in the control in which no test compound had been used and the radioactivity when the test compound at the certain concentration had been used, and the concentration of the compound which inhibited 50% of the transporter activity was calculated.

[1] = test system: rats fed cholesterol food; assay: Model for hepatic disorder associated with cholestasis (hepatic cell apoptosis): mitotic cells in liver; type: in vivo, rat; conditions: oral twice per day, 4 days, total in 10 sites of 200 μm×200 μm, control group 50 ± 13
Excerpt: In the present test example, a model for the hepatic disorder associated with cholestasis was employed with reference to apoptosis induction in hepatic cells in a hypercholesterolemia model described in Am. J. Physiol., 1995, 268, G613-G621.
That is, the food containing 0.4% cholesterol and 0.5% bile acid was given to SD (IGS) strain male rats at 7 to 9 weeks of age for 4 days, and the test compound was orally administered forcibly twice per day everyday from the starting date of cholesterol food feeding (each n=8). As a control, another group (n=8) were merely fed cholesterol food. The blood was exsanguinated from abdominal aorta 3 hours after the drug administration on the final day of the experiment. Then the liver was immediately removed and fixed in 10% neutral buffered formalin solution (brand name: FA-F96, supplied from Kokusan Chemical Co. Ltd.). After fixing, the sample was dehydrated and embedded using a closed type automatic embedding apparatus (brand name: ETP-180B, supplied from Sakura Finetek Japan). […] A total number of mitotic cells in different 10 sites in the range of 200 μm×200 μm on each section was counted.

CCCCC1(CCCC)CS(=O)(=O)c2ccc(N(C)C)cc2C(c2cccc(NC(=S)Nc3ccc(C[N+](C)(C)Cc4ccccc4)cc3)c2)N1.[Br-] (stereo not shown) [EXAMPLE 3440]
IC50 (rat IBAT): 0.01 µM

CCCCC1(CCCC)CS(=O)(=O)c2ccc(N(C)C)cc2C(c2cccc(NC(=S)CCCCC[N+]34CCC(CC3)CC4)c2)N1.[Br-] (stereo not shown) [EXAMPLE 1, 1-{5-[3-(3,3-dibutyl-7-dimethylamino-1,1-dioxo-2,3,4,5-tetrahydro-1,4-benzothiazepine-5-yl)phenylthiocarbamoyl]pentyl}-1-azoniabicyclo[2.2.2]octane bromide]
ALT (rats dosed bile acid; control group 82 ± 17): 53 ± 6 IU/L | AST (rats dosed bile acid; control group 157 ± 35): 100 ± 2 IU/L | ALP (rats dosed bile acid; control group 593 ± 77): 453 ± 50 IU/L | IC50 (ALANINE TRANSPORTER): 33 µM | MITOTIC CELLS IN LIVER (AVERAGE ± STANDARD ERROR, n = 8) ([1]; 0.1 mg/kg per administration): 36 ± 13 | MITOTIC CELLS IN LIVER (AVERAGE ± STANDARD ERROR, n = 8) ([1]; 1 mg/kg per administration): 28 ± 7

From patent US20120015925A1, “NOVEL BENZOTHIAZEPINE AND BENZOTHIEPINE COMPOUNDS” (ASAHI KASEI PHARMA CORPORATION, priority 2004, published 2012)
